{
  "source": "patent US20250352520A1",
  "about": "“USE OF DEXPRAMIPEXOLE FOR THE TREATMENT OF EOSINOPHILIC COPD” (Areteia Therapeutics, Inc., priority 2024, published 2025)",
  "conditions": "Week 16",
  "method": "Participants performed post-BD spirometry at specific visits as noted in the SOA.\nAfter completing the pre-BD spirometry, participants inhaled four puffs of albuterol/salbutamol (site sourced) metered dose inhaler (approximately 100 μg albuterol/salbutamol base per actuation), with each actuation 1 minute apart. Post-BD spirometry was assessed within 15 to 30 minutes after inhalation of albuterol/salbutamol.",
  "key": {"[1]": {"conditions": "<50% AEC reduction at Week 16 (N = 4), 150 mg BID"}, "[2]": {"conditions": ">=50% AEC reduction at Week 16 (N = 3), 150 mg BID"}},
  "note": "Where two headings read alike, the source gives them in different places.",
  "data": [
    {"smiles": "CCCN[C@@H]1CCc2nc(N)sc2C1", "note": "[Dexpramipexole, (6R)-2-amino-4,5,6,7-tetrahydro-6-(propylamino)benzothiazole]", "values": [
      {"measurement": "Post bronchodilator Peak Flow, Observed, Median", "setting": "[1]", "result": 324.5, "unit": "L/min"},
      {"measurement": "Post bronchodilator Peak Flow, Observed, Min", "setting": "[1]", "result": 146, "unit": "L/min"},
      {"measurement": "Post bronchodilator Peak Flow, Observed, Q1", "setting": "[1]", "result": 227, "unit": "L/min"},
      {"measurement": "Post bronchodilator Peak Flow, Observed, Q3", "setting": "[1]", "result": 425, "unit": "L/min"},
      {"measurement": "Post-BD FEV1 % change from baseline, Max", "setting": ">=50% AEC reduction at Week 16", "result": 57, "unit": "%"},
      {"measurement": "Post-BD FEV1 % change from baseline, Mean ± SD", "setting": ">=50% AEC reduction at Week 16", "result": "16.6 ± 35.02", "unit": "%"},
      {"measurement": "Post-BD FEV1 % change from baseline, Median", "setting": ">=50% AEC reduction at Week 16", "result": "−1.1", "unit": "%"},
      {"measurement": "Post-BD FEV1 % change from baseline, Min", "setting": ">=50% AEC reduction at Week 16", "result": "−6", "unit": "%"},
      {"measurement": "Post-BD FEV1 % change from baseline, Q1", "setting": ">=50% AEC reduction at Week 16", "result": "−6", "unit": "%"},
      {"measurement": "Post-BD FEV1 % change from baseline, Q3", "setting": ">=50% AEC reduction at Week 16", "result": 57, "unit": "%"},
      {"measurement": "Post-BD FEV1 Observed, Max", "setting": ">=50% AEC reduction at Week 16", "result": 2150, "unit": "mL"},
      {"measurement": "Post-BD FEV1 Observed, Mean ± SD", "setting": ">=50% AEC reduction at Week 16", "result": "1593.3 ± 616.95", "unit": "mL"},
      {"measurement": "Post-BD FEV1 Observed, Median", "setting": ">=50% AEC reduction at Week 16", "result": 1700.0, "unit": "mL"},
      {"measurement": "Post-BD FEV1 Observed, Min", "setting": ">=50% AEC reduction at Week 16", "result": 930, "unit": "mL"},
      {"measurement": "Post-BD FEV1 Observed, Q1", "setting": ">=50% AEC reduction at Week 16", "result": 930, "unit": "mL"},
      {"measurement": "Post-BD FEV1 Observed, Q3", "setting": ">=50% AEC reduction at Week 16", "result": 2150, "unit": "mL"},
      {"measurement": "Post-BD FEV1 change from baseline, Max", "setting": ">=50% AEC reduction at Week 16", "result": 780, "unit": "mL"},
      {"measurement": "Post-BD FEV1 change from baseline, Mean ± SD", "setting": ">=50% AEC reduction at Week 16", "result": "220.0 ± 487.54", "unit": "mL"},
      {"measurement": "Post-BD FEV1 change from baseline, Median", "setting": ">=50% AEC reduction at Week 16", "result": -10.0, "unit": "mL"},
      {"measurement": "Post-BD FEV1 change from baseline, Min", "setting": ">=50% AEC reduction at Week 16", "result": -110, "unit": "mL"},
      {"measurement": "Post-BD FEV1 change from baseline, Q1", "setting": ">=50% AEC reduction at Week 16", "result": -110, "unit": "mL"},
      {"measurement": "Post-BD FEV1 change from baseline, Q3", "setting": ">=50% AEC reduction at Week 16", "result": 780, "unit": "mL"},
      {"measurement": "Post bronchodilator Forced Expiratory Flow 25-75% (FEF25-75), % CFB (Percent change from baseline), Max", "setting": "[2]", "result": 81, "unit": "%"},
      {"measurement": "Post bronchodilator Forced Expiratory Flow 25-75% (FEF25-75), % CFB (Percent change from baseline), Mean ± SD", "setting": "[2]", "result": "26.7 ± 49.08", "unit": "%"},
      {"measurement": "Post bronchodilator Forced Expiratory Flow 25-75% (FEF25-75), % CFB (Percent change from baseline), Median", "setting": "[2]", "result": 12.5, "unit": "%"},
      {"measurement": "Post bronchodilator Forced Expiratory Flow 25-75% (FEF25-75), % CFB (Percent change from baseline), Min", "setting": "[2]", "result": "−14", "unit": "%"},
      {"measurement": "Post bronchodilator Forced Expiratory Flow 25-75% (FEF25-75), % CFB (Percent change from baseline), Q1", "setting": "[2]", "result": "−14", "unit": "%"},
      {"measurement": "Post bronchodilator Forced Expiratory Flow 25-75% (FEF25-75), % CFB (Percent change from baseline), Q3", "setting": "[2]", "result": 81, "unit": "%"},
      {"measurement": "Post bronchodilator Forced Expiratory Flow 25-75% (FEF25-75), CFB (Change from baseline), Max", "setting": "[2]", "result": 520, "unit": "mL/s"},
      {"measurement": "Post bronchodilator Forced Expiratory Flow 25-75% (FEF25-75), CFB (Change from baseline), Mean ± SD", "setting": "[2]", "result": "130.0 ± 350.86", "unit": "mL/s"},
      {"measurement": "Post bronchodilator Forced Expiratory Flow 25-75% (FEF25-75), CFB (Change from baseline), Median", "setting": "[2]", "result": 30.0, "unit": "mL/s"},
      {"measurement": "Post bronchodilator Forced Expiratory Flow 25-75% (FEF25-75), CFB (Change from baseline), Min", "setting": "[2]", "result": -160, "unit": "mL/s"},
      {"measurement": "Post bronchodilator Forced Expiratory Flow 25-75% (FEF25-75), CFB (Change from baseline), Q1", "setting": "[2]", "result": -160, "unit": "mL/s"},
      {"measurement": "Post bronchodilator Forced Expiratory Flow 25-75% (FEF25-75), CFB (Change from baseline), Q3", "setting": "[2]", "result": 520, "unit": "mL/s"},
      {"measurement": "Post bronchodilator Forced Expiratory Flow 25-75% (FEF25-75), Observed, Max", "setting": "[2]", "result": 1160, "unit": "mL/s"},
      {"measurement": "Post bronchodilator Forced Expiratory Flow 25-75% (FEF25-75), Observed, Mean ± SD", "setting": "[2]", "result": "810.0 ± 474.45", "unit": "mL/s"},
      {"measurement": "Post bronchodilator Forced Expiratory Flow 25-75% (FEF25-75), Observed, Median", "setting": "[2]", "result": 1000.0, "unit": "mL/s"},
      {"measurement": "Post bronchodilator Forced Expiratory Flow 25-75% (FEF25-75), Observed, Min", "setting": "[2]", "result": 270, "unit": "mL/s"},
      {"measurement": "Post bronchodilator Forced Expiratory Flow 25-75% (FEF25-75), Observed, Q1", "setting": "[2]", "result": 270, "unit": "mL/s"},
      {"measurement": "Post bronchodilator Forced Expiratory Flow 25-75% (FEF25-75), Observed, Q3", "setting": "[2]", "result": 1160, "unit": "mL/s"},
      {"measurement": "Post bronchodilator Forced Vital Capacity (FVC), % CFB (Percent change from baseline), Max", "setting": "[2]", "result": 36, "unit": "%"},
      {"measurement": "Post bronchodilator Forced Vital Capacity (FVC), % CFB (Percent change from baseline), Mean ± SD", "setting": "[2]", "result": "9.2 ± 23.24", "unit": "%"},
      {"measurement": "Post bronchodilator Forced Vital Capacity (FVC), % CFB (Percent change from baseline), Median", "setting": "[2]", "result": "−2.4", "unit": "%"},
      {"measurement": "Post bronchodilator Forced Vital Capacity (FVC), % CFB (Percent change from baseline), Min", "setting": "[2]", "result": "−6", "unit": "%"},
      {"measurement": "Post bronchodilator Forced Vital Capacity (FVC), % CFB (Percent change from baseline), Q1", "setting": "[2]", "result": "−6", "unit": "%"},
      {"measurement": "Post bronchodilator Forced Vital Capacity (FVC), % CFB (Percent change from baseline), Q3", "setting": "[2]", "result": 36, "unit": "%"},
      {"measurement": "Post bronchodilator Forced Vital Capacity (FVC), CFB (Change from baseline), Max", "setting": "[2]", "result": 900, "unit": "mL"},
      {"measurement": "Post bronchodilator Forced Vital Capacity (FVC), CFB (Change from baseline), Mean ± SD", "setting": "[2]", "result": "226.7 ± 585.26", "unit": "mL"},
      {"measurement": "Post bronchodilator Forced Vital Capacity (FVC), CFB (Change from baseline), Median", "setting": "[2]", "result": -60.0, "unit": "mL"},
      {"measurement": "Post bronchodilator Forced Vital Capacity (FVC), CFB (Change from baseline), Min", "setting": "[2]", "result": -160, "unit": "mL"},
      {"measurement": "Post bronchodilator Forced Vital Capacity (FVC), CFB (Change from baseline), Q1", "setting": "[2]", "result": -160, "unit": "mL"},
      {"measurement": "Post bronchodilator Forced Vital Capacity (FVC), CFB (Change from baseline), Q3", "setting": "[2]", "result": 900, "unit": "mL"},
      {"measurement": "Post bronchodilator Forced Vital Capacity (FVC), Observed, Max", "setting": "[2]", "result": 3400, "unit": "mL"},
      {"measurement": "Post bronchodilator Forced Vital Capacity (FVC), Observed, Mean ± SD", "setting": "[2]", "result": "2796.7 ± 527.86", "unit": "mL"},
      {"measurement": "Post bronchodilator Forced Vital Capacity (FVC), Observed, Median", "setting": "[2]", "result": 2570.0, "unit": "mL"},
      {"measurement": "Post bronchodilator Forced Vital Capacity (FVC), Observed, Min", "setting": "[2]", "result": 2420, "unit": "mL"},
      {"measurement": "Post bronchodilator Forced Vital Capacity (FVC), Observed, Q1", "setting": "[2]", "result": 2420, "unit": "mL"},
      {"measurement": "Post bronchodilator Forced Vital Capacity (FVC), Observed, Q3", "setting": "[2]", "result": 3400, "unit": "mL"},
      {"measurement": "Post bronchodilator Peak Flow, % CFB (Percent change from baseline), Max", "setting": "[2]", "result": 103, "unit": "%"},
      {"measurement": "Post bronchodilator Peak Flow, % CFB (Percent change from baseline), Mean ± SD", "setting": "[2]", "result": "40.2 ± 55.44", "unit": "%"},
      {"measurement": "Post bronchodilator Peak Flow, % CFB (Percent change from baseline), Median", "setting": "[2]", "result": 21.5, "unit": "%"},
      {"measurement": "Post bronchodilator Peak Flow, % CFB (Percent change from baseline), Min", "setting": "[2]", "result": "−3", "unit": "%"},
      {"measurement": "Post bronchodilator Peak Flow, % CFB (Percent change from baseline), Q1", "setting": "[2]", "result": "−3", "unit": "%"},
      {"measurement": "Post bronchodilator Peak Flow, % CFB (Percent change from baseline), Q3", "setting": "[2]", "result": 103, "unit": "%"},
      {"measurement": "Post bronchodilator Peak Flow, CFB (Change from baseline), Max", "setting": "[2]", "result": 161, "unit": "L/min"},
      {"measurement": "Post bronchodilator Peak Flow, CFB (Change from baseline), Mean ± SD", "setting": "[2]", "result": "64.3 ± 86.56", "unit": "L/min"},
      {"measurement": "Post bronchodilator Peak Flow, CFB (Change from baseline), Median", "setting": "[2]", "result": 38.0, "unit": "L/min"},
      {"measurement": "Post bronchodilator Peak Flow, CFB (Change from baseline), Min", "setting": "[2]", "result": -6, "unit": "L/min"},
      {"measurement": "Post bronchodilator Peak Flow, CFB (Change from baseline), Q1", "setting": "[2]", "result": -6, "unit": "L/min"},
      {"measurement": "Post bronchodilator Peak Flow, CFB (Change from baseline), Q3", "setting": "[2]", "result": 161, "unit": "L/min"},
      {"measurement": "Post bronchodilator Peak Flow, Observed, Max", "setting": "[2]", "result": 318, "unit": "L/min"},
      {"measurement": "Post bronchodilator Peak Flow, Observed, Mean ± SD", "setting": "[2]", "result": "233.0 ± 77.58", "unit": "L/min"},
      {"measurement": "Post bronchodilator Peak Flow, Observed, Median", "setting": "[2]", "result": 215.0, "unit": "L/min"},
      {"measurement": "Post bronchodilator Peak Flow, Observed, Min", "setting": "[2]", "result": 166, "unit": "L/min"},
      {"measurement": "Post bronchodilator Peak Flow, Observed, Q1", "setting": "[2]", "result": 166, "unit": "L/min"},
      {"measurement": "Post bronchodilator Peak Flow, Observed, Q3", "setting": "[2]", "result": 318, "unit": "L/min"}
    ]}
  ]
}
